Data: patent publication US7687547B2, “Diphenyl ether antimicrobial compounds” (Research Foundation of State University of New York, priority 2004, dated 2010)
Converted amounts (≈) assume the structure as drawn. Read-outs that look alike come from different tables or passages of the source.

Experiments:
[1] = tested on: Mycobacterium tuberculosis strain H37Rv; experiment: MIC99 microplate dilution growth inhibition; type: cell-based; details: M. tuberculosis H37Rv, 7H9 broth, 37° C., 3-5 days, lowest concentration inhibiting visible growth
InhA = InhA (Mycobacterium tuberculosis, UniProt P9WGR1); experiment: InhA enzyme inhibition IC50 (NADH oxidation at 340 nm, DD-CoA substrate); type: biochemical, M. tuberculosis
Sequence of InhA (P9WGR1 whole entry, looked up): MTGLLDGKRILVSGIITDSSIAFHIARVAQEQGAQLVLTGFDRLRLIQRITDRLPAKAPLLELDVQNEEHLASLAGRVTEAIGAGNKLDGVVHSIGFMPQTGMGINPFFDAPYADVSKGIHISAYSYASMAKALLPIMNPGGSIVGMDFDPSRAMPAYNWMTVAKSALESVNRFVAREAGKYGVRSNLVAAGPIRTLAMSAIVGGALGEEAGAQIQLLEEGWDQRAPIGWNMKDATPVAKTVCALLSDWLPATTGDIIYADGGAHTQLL
Experimental: IC50 values were determined by measuring the enzyme activity at different inhibitor concentrations. The experimental data were analyzed using Equation 1, where I is the inhibitor concentration and Y is fraction activity. Y=1/(1+[I]/IC50) (1)
All experiments were carried out on a CARY-100 Bio (Varian) spectrophotometer at 25° C. The buffer used was 30 mM PIPES, 150 mM NaCl, pH 6.8. Kinetic parameters were determined spectrophotometrically by following the oxidation of NADH to NAD^+ at 340 nm (ε=6.3 nM^−1 cm^−1). Trans-2-dodecenoyl-CoA (DD-CoA) was used as a substrate. Two sets of conditions were used for the IC50 determinations.
For inhibitors with IC50 values above 0.2 μM, reaction mixtures contained 250 μM NADH, 74 nM InhA, and 25 μM DD-CoA. […] In each case, the inhibitor concentration was varied over the range of 0-200 μM.

[2] = InhA, 250 μM NADH, DD-CoA substrate, 25° C., pH 6.8, read-out: IC50

With `CCCCc1ccc(Oc2ccccc2)c(O)c1` [-(n-C4H9), 5-butyl-2-phenoxyphenol] as the compound, how does the MIC99 [1] read?
Its MIC99 is 0.93 µM (≈ 0.225 µg/mL).

And the IC50 (InhA; [2])?
The IC50 was 80 nM.

Which MIC99 [1] does the source give for `CCCCCc1ccc(Oc2ccccc2)c(O)c1` [-(n-C5H11), 5-pentyl-2-phenoxyphenol] here?
The MIC99 was 0.93 µM (≈ 0.238 µg/mL).

What about the IC50 (InhA; [2]) of the same compound?
Its IC50 is 17 nM.

Which results are given for `CCCCCCc1ccc(Oc2ccccc2)c(O)c1` [-(n-C6H13), 5-hexyl-2-phenoxyphenol]?
MIC99 [1]: 0.93 µM (≈ 0.251 µg/mL); IC50 (InhA): 10 nM

For `CCCCCCCCc1ccc(Oc2ccccc2)c(O)c1` [-(n-C8H17), 5-octyl-2-phenoxyphenol], which IC50 (InhA; [2]) is on record?
The IC50 was 5 nM.

Which results are given for `CCc1ccc(Oc2ccccc2)c(O)c1` [—C2H5, 5-ethyl-2-phenoxyphenol]?
MIC99 [1]: 3.75 µM (≈ 0.803 µg/mL); IC50 (InhA; [2]): 2000 nM
